This passage reports IC50 results from patent US11254668B2, “Pyrazolo[1,5-A]pyrazin-4-yl and related derivatives” (Pfizer Inc., priority 2017, dated 2022).

What is called IC50 is the concentration that gives 50% inhibition.

Each structure is given as a SMILES string. Where only a bound is given, the exact number is not on record here.

What all share (assay type): biochemical
For test [1], the target named is JAK1 (Homo sapiens (Human), UniProt P23458). The test is described as follows: JAK Caliper Enzyme Assay at 1 mM ATP, JAK1. An outline of the steps: (§1)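 Recombinant human kinase domains phosphorylate a fluorescent synthetic peptide at 1 mM ATP, room temperature, with enzyme and time tuned for 20-30% conversion; EDTA-stopped. Product/substrate separated by microfluidic mobility shift; percent effect versus DMSO and positive controls fitted to IC50 (nM).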
JAK1, sequence (P23458 875-1153): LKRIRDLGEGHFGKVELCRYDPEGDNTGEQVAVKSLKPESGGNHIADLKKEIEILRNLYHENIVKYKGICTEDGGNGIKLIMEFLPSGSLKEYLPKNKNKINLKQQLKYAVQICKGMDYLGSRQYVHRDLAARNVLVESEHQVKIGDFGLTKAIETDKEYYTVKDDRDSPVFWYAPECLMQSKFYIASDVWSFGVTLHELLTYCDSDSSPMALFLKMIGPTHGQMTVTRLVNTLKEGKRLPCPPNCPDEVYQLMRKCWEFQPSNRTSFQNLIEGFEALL

The target in test [2] is JAK3 (Homo sapiens (Human), UniProt P52333). The test is described as follows: JAK Caliper Enzyme Assay at 1 mM ATP, JAK3. An outline of the steps: as §1
JAK3, sequence (P52333 822-1111): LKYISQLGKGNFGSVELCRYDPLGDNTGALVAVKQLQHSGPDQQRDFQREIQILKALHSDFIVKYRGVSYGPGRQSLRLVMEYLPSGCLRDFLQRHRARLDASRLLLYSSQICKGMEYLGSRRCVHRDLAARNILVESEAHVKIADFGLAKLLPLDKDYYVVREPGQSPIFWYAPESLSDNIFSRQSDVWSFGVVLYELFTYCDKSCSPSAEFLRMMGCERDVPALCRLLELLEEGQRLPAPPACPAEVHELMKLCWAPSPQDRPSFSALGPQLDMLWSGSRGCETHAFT
Test [3] concerns the target JAK2 (Homo sapiens (Human), UniProt O60674). The test is described as follows: JAK Caliper Enzyme Assay at 1 mM ATP, JAK2. An outline of the steps:
(§2)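 Mobility-shift microfluidic read-out: substrate and phosphopeptide peaks separated, % conversion = product/(product+substrate). Reaction used recombinant human kinase domain, synthetic peptide, 1 mM ATP, RT incubation to 20–30% turnover, quenched with EDTA. Percent effect versus DMSO and positive controls, plotted against concentration.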

Test [4] addresses TYK2 (Homo sapiens (Human), UniProt P29597). The test is described as follows: JAK Caliper Enzyme Assay at 1 mM ATP, TYK2. In short, it runs like this:
as §2

TYK2, sequence (P29597 897-1176): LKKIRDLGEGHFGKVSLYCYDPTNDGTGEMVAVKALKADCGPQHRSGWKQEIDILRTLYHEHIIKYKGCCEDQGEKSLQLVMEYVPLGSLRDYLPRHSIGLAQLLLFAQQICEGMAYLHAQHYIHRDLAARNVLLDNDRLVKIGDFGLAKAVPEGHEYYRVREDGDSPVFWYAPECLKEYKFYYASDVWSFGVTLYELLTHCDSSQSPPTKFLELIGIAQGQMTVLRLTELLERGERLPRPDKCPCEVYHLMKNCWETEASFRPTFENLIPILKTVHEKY
JAK2, sequence (O60674 849-1124): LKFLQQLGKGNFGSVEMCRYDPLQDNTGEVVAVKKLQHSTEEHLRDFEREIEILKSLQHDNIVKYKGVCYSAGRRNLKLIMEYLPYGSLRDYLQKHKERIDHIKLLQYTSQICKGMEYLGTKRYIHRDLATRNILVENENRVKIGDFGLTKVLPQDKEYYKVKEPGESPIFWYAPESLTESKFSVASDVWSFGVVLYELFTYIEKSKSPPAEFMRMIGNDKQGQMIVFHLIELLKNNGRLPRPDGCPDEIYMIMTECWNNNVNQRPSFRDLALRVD

On to `Cc1cc(-c2nc(-c3cc[nH]n3)cc3ncccc23)nn1[C@]1(CC#N)C[C@H](C#N)C1` [Example 268, cis-3-(cyanomethyl)-3-{5-methyl-3-[7-(1H-pyrazol-3-yl)-1,6-naphthyridin-5-yl]-1H-pyrazol-1-yl}cyclobutanecarbonitrile], for which the IC50 in test [1] is 81 nM; in test [2], 7780 nM; in test [3], 33 nM; in test [4], 8 nM.
In the same order, the values of `Cc1cc(-c2nc(-c3cc[nH]n3)cc3ncccc23)nn1[C@]1(CC#N)C[C@@H](C#N)C1` [Example 269, trans-3-(cyanomethyl)-3-{5-methyl-3-[7-(1H-pyrazol-3-yl)-1,6-naphthyridin-5-yl]-1H-pyrazol-1-yl}cyclobutanecarbonitrile] are 1380 nM, above 10000 nM, 447 nM and 27 nM.
For the molecule `Cc1cc(-c2nc(-c3cc(N)n(C)n3)cc3ncccc23)nn1[C@]1(CC#N)C[C@@H](C#N)C1` [Example 270, trans-3-{3-[7-(5-amino-1-methyl-1H-pyrazol-3-yl)-1,6-naphthyridin-5-yl]-5-methyl-1H-pyrazol-1-yl}-3-(cyanomethyl)cyclobutanecarbonitrile], the IC50 in test [1] is 6900 nM; in test [2], above 10000 nM; in test [3], 574 nM; in test [4], 46 nM.
For `Cc1cc(-c2nc(-c3cc(N)n(C)n3)cc3ncccc23)nn1[C@]1(CC#N)C[C@H](C#N)C1` [Example 271, cis-3-{3-[7-(5-amino-1-methyl-1H-pyrazol-3-yl)-1,6-naphthyridin-5-yl]-5-methyl-1H-pyrazol-1-yl}-3-(cyanomethyl)cyclobutanecarbonitrile], in that order: 429 nM, 7070 nM, 46 nM and 16 nM.
Turning to `Cc1cc(-c2nc(-c3cn[nH]c3)cc3ncccc23)nn1C1(CC#N)CN(S(C)(=O)=O)C1` [Example 272, [3-{5-methyl-3-[7-(1H-pyrazol-4-yl)-1,6-naphthyridin-5-yl]-1H-pyrazol-1-yl}-1-(methylsulfonyl)azetidin-3-yl]acetonitrile], the 50% inhibitory concentration (IC50) in test [1] is 3790 nM; in test [2], above 10000 nM; in test [3] it was 1390 nM; in test [4] it was 120 nM.
In the same order, the values of `Cc1cc(-c2nc(-c3cn[nH]c3)cc3ncccc23)nn1[C@]1(CC#N)C[C@@H](C#N)C1` [Example 273, trans-3-(cyanomethyl)-3-{5-methyl-3-[7-(1H-pyrazol-4-yl)-1,6-naphthyridin-5-yl]-1H-pyrazol-1-yl}cyclobutanecarbonitrile] are 786 nM, above 10000 nM, 311 nM and 49 nM.
For `Cc1cc(-c2nc(-c3cn[nH]c3)cc3ncccc23)nn1[C@]1(CC#N)C[C@H](C#N)C1` [Example 274, cis-3-(cyanomethyl)-3-{5-methyl-3-[7-(1H-pyrazol-4-yl)-1,6-naphthyridin-5-yl]-1H-pyrazol-1-yl}cyclobutanecarbonitrile], in that order: 60 nM, 3360 nM, 34 nM and 9 nM.
In the same order, the values of `Cc1cc(-c2nc(-c3cn[nH]c3N)cc3ncccc23)nn1[C@]1(CC#N)C[C@@H](C#N)C1` [Example 275, trans-3-{3-[7-(5-amino-1H-pyrazol-4-yl)-1,6-naphthyridin-5-yl]-5-methyl-1H-pyrazol-1-yl}-3-(cyanomethyl)cyclobutanecarbonitrile] are 38 nM, 2650 nM, 20 nM and 13 nM.
In the case of `Cc1cn([C@]2(CC#N)C[C@@H](C#N)C2)nc1-c1nc(-c2cn[nH]c2N)cc2ncccc12` [Example 276, trans-3-{3-[7-(5-amino-1H-pyrazol-4-yl)-1,6-naphthyridin-5-yl]-4-methyl-1H-pyrazol-1-yl}-3-(cyanomethyl)cyclobutanecarbonitrile], the IC50 in test [1] was 3480 nM; in test [2], above 10000 nM; in test [3] it was 947 nM; in test [4], 144 nM.
In the same order, the values of `Cc1cn([C@]2(CC#N)C[C@H](C#N)C2)nc1-c1nc(-c2cc(N)n(C)n2)cc2ncccc12` [Example 277, cis-3-{3-[7-(5-amino-1-methyl-1H-pyrazol-3-yl)-1,6-naphthyridin-5-yl]-4-methyl-1H-pyrazol-1-yl}-3-(cyanomethyl)cyclobutanecarbonitrile] are above 10000 nM, above 10000 nM, 2300 nM and 675 nM.
For `Cc1cn([C@]2(CC#N)C[C@@H](C#N)C2)nc1-c1nc(-c2cc(N)n(C)n2)cc2ncccc12` [Example 278, trans-3-{3-[7-(5-amino-1-methyl-1H-pyrazol-3-yl)-1,6-naphthyridin-5-yl]-4-methyl-1H-pyrazol-1-yl}-3-(cyanomethyl)cyclobutanecarbonitrile], in that order: above 10000 nM, above 10000 nM, 9840 nM and 1430 nM.
In the case of `Cn1cc(-c2cc3ncccc3c(-n3ccc(C4(CC#N)CN(CC(F)(F)F)C4)n3)n2)cn1` [Example 279, [3-{1-[7-(1-methyl-1H-pyrazol-4-yl)-1,6-naphthyridin-5-yl]-1H-pyrazol-3-yl}-1-(2,2,2-trifluoroethyl)azetidin-3-yl]acetonitrile], the IC50 is 6340 nM in test [1], above 10000 nM in test [2], 686 nM in test [3] and 194 nM in test [4].
Regarding `Cn1cc(-c2cc3ncccc3c(-c3cn(C4(CC#N)CN(CC(F)(F)F)C4)nn3)n2)cn1` [Example 280, [3-{4-[7-(1-methyl-1H-pyrazol-4-yl)-1,6-naphthyridin-5-yl]-1H-1,2,3-triazol-1-yl}-1-(2,2,2-trifluoroethyl)azetidin-3-yl]acetonitrile], the IC50 in test [1] was found to be 182 nM; in test [2] it was 3260 nM; in test [3], 28 nM; in test [4], 9 nM.
Take `CS(=O)(=O)N1CC(CC#N)(n2ncc(-c3nc(-c4cc[nH]n4)cc4ncccc34)n2)C1` [Example 281, [1-(methylsulfonyl)-3-{4-[7-(1H-pyrazol-3-yl)-1,6-naphthyridin-5-yl]-2H-1,2,3-triazol-2-yl}azetidin-3-yl]acetonitrile]: the IC50 was 179 nM in test [1], above 10000 nM in test [2], 90 nM in test [3] and 16 nM in test [4].
In the same order, the values of `Cn1cc(-c2cc3ncccc3c(-c3cc(C4(CC#N)CN(CC#N)C4)no3)n2)cn1` [Example 282] are 219 nM, above 10000 nM, 45 nM and 60 nM.
In the same order, the values of `CS(=O)(=O)N1CC(CC#N)(n2ccc(-c3cc(-c4cc[nH]n4)cc4ncccc34)n2)C1` [Example 283, [1-(methylsulfonyl)-3-{3-[7-(1H-pyrazol-3-yl)quinolin-5-yl]-1H-pyrazol-1-yl}azetidin-3-yl]acetonitrile] are 5670 nM, above 10000 nM, 2000 nM and 176 nM.
